Broadly, the IC50 is the concentration at which inhibition is half-maximal. In general, EC50 refers to the concentration that produces a half-maximal response. Read a high EC50 as a less potent agent. By Kb is commonly meant the equilibrium dissociation constant of an antagonist, usually derived from a functional assay. Higher therefore signals lower antagonist affinity.

Six compounds from patent US7335723B2, “Melanin-concentrating hormone antagonists” (priority 2001, dated 2008) can be followed below.

For one assay, the target named is human MCH-1R (Homo sapiens, UniProt Q99705). In words: MCH-1R binding assay, inhibition of [125I]-human MCH binding to membranes.
In a further assay the target is human MCH-2R (Homo sapiens, UniProt Q969V1). In words: Aequorin bioluminescence functional assay, MCH-2R agonist activity. The settings on record: for MCH-2R Agonist Activation %: 293-AEQ17 cells expressing human MCH-2R.
Assay [1] addresses T1, rat MCH-1R (Rattus norvegicus, UniProt P97639). In words: Antagonist assay, 293-AEQ17 cells expressing rat MCH-1R. Set-up: expressed in transfected cells; host or cells: 293-AEQ17 (aequorin-expressing HEK-293 reporter line). It counts as cell-based. The settings on record: for Kb: determined per Trends in Pharmacol. Sci. 14:237-239, 1993. The procedure: Cells were grown in DMEM (high glucose) supplemented with 10% FBS (Hyclone), 500 μg/ml G418, 200 μg/ml hygromycin and 25 mM HEPES in T75 flasks.
The assay itself involved charging apoaequorin with coelenterazine cp(Molecular Probes, C-14260) and was performed as follows:
1. Confluent T75 flasks are rinsed 1× with 12 ml Hams F12 medium+300 μM glutathione+0.1% FBS.
2. The cells were charged by adding 8 ml Hams F12+0.1% FBS+300 μM glutathione+10 μM coelenterazine, incubate at 37° C. for 1 hour.
4. ECB (6 ml) is added to the flask and the cells are dissociated with a rubber-tipped scraper, centrifuged for 5 minutes at 2500 rpm and the cell pellet resuspended in 5 ml ECB. The cells are counted and diluted to 5×10^5/ml.
Binding and agonist activity at the MCH-1R and MCH-2R was determined as described in Examples 2 and 3. Antagonist IC50 was determined as described in Example 4. Kb was determined using the procedures described in Trends in Pharmacol. Sci. 14:237-239, 1993.

For assay [2], the target named is T1, rat MCH-1R. Nature of the assay: Aequorin bioluminescence functional assay, MCH-1R agonist activity. The following applies: for MCH-1R Agonist Activation %: 293-AEQ17 cells expressing rat MCH-1R.

Where a SMILES comes first, the peptide text is derived from it. Bridges are numbered along the chain shown (N, C = ends). [ ]: non-standard residue; d: D form. The star is where a group is joined. Pentanoyl(5-guanidino) = NC(N)=NCCCCC(=O)*; Ava = NCCCCC(=O)O

T1 sequence (P97639 whole entry): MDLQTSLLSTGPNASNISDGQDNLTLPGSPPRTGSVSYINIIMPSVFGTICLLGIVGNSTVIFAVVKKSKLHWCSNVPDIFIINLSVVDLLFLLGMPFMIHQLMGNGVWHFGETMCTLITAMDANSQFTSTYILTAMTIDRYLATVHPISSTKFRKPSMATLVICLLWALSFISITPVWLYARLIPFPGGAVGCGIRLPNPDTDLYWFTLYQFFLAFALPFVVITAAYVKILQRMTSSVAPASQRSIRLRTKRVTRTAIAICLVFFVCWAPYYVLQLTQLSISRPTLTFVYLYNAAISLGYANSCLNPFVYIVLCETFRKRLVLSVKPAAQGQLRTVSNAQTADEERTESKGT
Sequence of human MCH-2R (Q969V1 whole entry): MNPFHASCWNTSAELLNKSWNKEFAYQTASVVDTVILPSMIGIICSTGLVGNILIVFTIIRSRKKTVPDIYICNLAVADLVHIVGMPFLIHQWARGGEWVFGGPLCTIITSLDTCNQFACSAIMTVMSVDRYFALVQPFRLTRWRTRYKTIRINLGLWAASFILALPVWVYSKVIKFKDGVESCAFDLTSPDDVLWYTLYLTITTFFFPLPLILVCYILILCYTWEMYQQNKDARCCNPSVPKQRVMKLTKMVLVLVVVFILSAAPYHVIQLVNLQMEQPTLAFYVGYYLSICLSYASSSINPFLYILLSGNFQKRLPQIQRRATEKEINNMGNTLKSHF
Sequence of human MCH-1R (Q99705 whole entry): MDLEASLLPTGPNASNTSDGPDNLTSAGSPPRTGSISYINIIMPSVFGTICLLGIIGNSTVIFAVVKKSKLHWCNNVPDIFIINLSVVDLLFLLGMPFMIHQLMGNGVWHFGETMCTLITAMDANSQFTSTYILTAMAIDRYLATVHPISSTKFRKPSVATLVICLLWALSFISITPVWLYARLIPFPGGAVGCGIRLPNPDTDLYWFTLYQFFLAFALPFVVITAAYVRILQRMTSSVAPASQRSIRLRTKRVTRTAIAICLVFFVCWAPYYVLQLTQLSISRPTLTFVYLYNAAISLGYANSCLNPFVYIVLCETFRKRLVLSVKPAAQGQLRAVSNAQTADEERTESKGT
Description for human MCH-1R: Cell membranes were prepared on ice. Each T-75 flask was rinsed twice with 10 ml of Enzyme-free Cell Dissociation Buffer (Specialty Media, Lavallette, N.J.), and the cell monolayer was detached in an additional 10 ml of Enzyme-free Cell Dissociation Buffer by incubation at room temperature for 10 minutes. Dissociated cells were centrifuged (500×g for 10 minutes at 4° C.), resuspended in 5 ml homogenization buffer (10 mM Tris-HCl, pH 7.4, 0.01 mM Pefabloc, 10 μM phosphoramidon, 40 μg/ml bacitracin) and then homogenized using a glass homogenizer (10-15 strokes). The homogenate was centrifuged for 10 minutes (1,000×g at 4° C.). The resulting supernatant was then centrifuged at 38,700×g for 15 minutes at 4° C. Pelleted membranes were resuspended (passed through 25 gauge needle 5 times), snap-frozen on liquid nitrogen, and stored at −80° C. until use.
Bound radioligand was separated by rapid vacuum filtration (Packard Filtermate 96-well cell harvester) through GF/C filters pretreated for 1 hour with 1% polyethylenimine. After application of the membrane suspension to the filter, the filters were washed 3 times with 3 ml each of ice-cold 50 mM Tris-HCl, pH 7.4, 10 mM MgCl2, 2 mM EDTA, 0.04% Tween 20 and the bound radioactivity on the filters was quantitated by scintillation counting (TopCount device).
For the SPA-based assay, WGA-PVT beads (NEN Life Sciences Products) were resuspended in Dulbecco's PBS with calcium and magnesium (500 mg beads in 4 ml PBS). […] The suspension was mixed gently for 20 minutes, 12.3 ml of assay buffer and protease inhibitors were added (final concentration given): 2 μg/ml leupeptin, 10 μM phosphoramidon, 40 μg/ml bacitracin, 5 μg/ml aprotinin, 0.1 mM Pefabloc.
Coated beads were kept on ice until use.

`CSCC[C@@H]1NC(=O)[C@@H](NC(=O)CCCCNC(=N)N)CSSC[C@@H](C(N)=O)NC(=O)CCCCNC(=O)CCCCNC(=O)[C@H](Cc2ccc(O)cc2)NC(=O)[C@H](C(C)C)NC(=O)[C@H](CCCNC(=N)N)NC(=O)CNC(=O)[C@H](CC(C)C)NC1=O` [SEQ. ID. NO. 11] yielded an IC50 on human MCH-1R of 0.003 µM. At human MCH-2R, the EC50 is greater than 10 µM and the “MCH-2R Agonist Activation %” value is 91%. In addition, on rat MCH-1R [1], 0.0029 µM corresponded to half-maximal inhibition (IC50) and the Kb turned out to be 0.00125 µM. Besides, at rat MCH-1R [2], the EC50 is greater than 10 µM and the “MCH-1R Agonist Activation %” value was 3%.
`CSCC[C@@H]1NC(=O)[C@@H](NC(=O)CCCCNC(=N)N)CSSC[C@@H](C(N)=O)NC(=O)CCCNC(=O)CCCNC(=O)[C@H](Cc2ccc(O)cc2)NC(=O)[C@H](C(C)C)NC(=O)[C@H](CCCNC(=N)N)NC(=O)CNC(=O)[C@H](CC(C)C)NC1=O` [SEQ. ID. NO. 13] displayed a concentration for half-maximal inhibition (IC50) on human MCH-1R of 0.049 µM. In addition, at human MCH-2R, the EC50 was greater than 10 µM and the “MCH-2R Agonist Activation %” value is listed as 35%. On rat MCH-1R [1], this compound returned an IC50 of 0.00684 µM and a Kb of 0.003 µM. Besides, at rat MCH-1R [2], the EC50 was greater than 10 µM and the “MCH-1R Agonist Activation %” value came to 3.5%.
On human MCH-1R, `CSCC[C@@H]1NC(=O)[C@@H](NC(=O)CCCCNC(=N)N)CSSC[C@@H](C(N)=O)NC(=O)CCCCNC(=O)CCCCNC(=O)[C@H](Cc2ccc(O)cc2)NC(=O)[C@H](C)NC(=O)[C@H](CCCNC(=N)N)NC(=O)CNC(=O)[C@H](CC(C)C)NC1=O` [SEQ. ID. NO. 20] ({Pentanoyl(5-guanidino)}-CMLGRAY[Ava][Ava]C-NH2; disulfide 1-10; C-terminus assumed) displayed an IC50 of 0.029 µM. In addition, on human MCH-2R, the EC50 is greater than 10 µM and the “MCH-2R Agonist Activation %” value is 38%. On rat MCH-1R [1], the IC50 was found to be 0.0047 µM and the Kb stood at 0.002 µM. In addition, at rat MCH-1R [2], the EC50 is greater than 10 µM and the “MCH-1R Agonist Activation %” value came out at 3.4%.
As for `CSCC[C@@H]1NC(=O)[C@@H](NC(=O)[C@H](CCCNC(=N)N)NC(C)=O)CSSC[C@@H](C(N)=O)NC(=O)CCCCNC(=O)CCCCNC(=O)[C@H](Cc2ccc(O)cc2)NC(=O)[C@H](C(C)C)NC(=O)[C@H](CCCNC(=N)N)NC(=O)CCCCNC(=O)CCCCNC1=O` [SEQ. ID. NO. 30] (Ac-RCM[Ava][Ava]RVY[Ava][Ava]C-NH2; disulfide 2-11 (inferred); C-terminus assumed), the IC50 at human MCH-1R was determined as 0.088 µM. On human MCH-2R, the EC50 was greater than 10 µM and the “MCH-2R Agonist Activation %” value was 16%. On rat MCH-1R [1], this compound registered an IC50 of 0.0106 µM and a Kb of 0.0046 µM. At rat MCH-1R [2], the half-maximal effective concentration (EC50) was greater than 10 µM and the “MCH-1R Agonist Activation %” value is 3%.
Turning to `CSCC[C@@H]1NC(=O)[C@@H](NC(=O)CCCCNC(=N)N)CSSC[C@@H](C(=O)O)NC(=O)CCCCNC(=O)CCCCNC(=O)[C@H](Cc2ccc(O)cc2)NC(=O)[C@H](C(C)C)NC(=O)[C@H](CCCNC(=N)N)NC(=O)CNC(=O)[C@H](CC(C)C)NC1=O` [SEQ. ID. NO. 18], the IC50 on human MCH-1R was determined as 0.29 µM. For the same compound, at human MCH-2R, the EC50 was greater than 10 µM and the “MCH-2R Agonist Activation %” value amounted to 38%. Besides, at rat MCH-1R [1], the IC50 was determined as 0.0757 µM and the Kb was found to be 0.0329 µM. At rat MCH-1R [2], the EC50 is greater than 10 µM and the “MCH-1R Agonist Activation %” value was found to be 3.8%.
Take `CSCC[C@@H]1NC(=O)[C@@H](NC(=O)CCCCNC(=N)N)CSSC[C@@H](C(N)=O)NC(=O)CCCCNC(=O)CCCCNC(=O)[C@H](Cc2ccc(O)cc2)NC(=O)[C@H](C(C)C)NC(=O)[C@H](CCCNC(=N)N)NC(=O)CCCCNC(=O)CCCCNC1=O` [SEQ. ID. NO. 32] ({Pentanoyl(5-guanidino)}-CM[Ava][Ava]RVY[Ava][Ava]C-NH2; disulfide 1-10; C-terminus assumed): the IC50 on human MCH-1R stood at 0.062 µM. For the same compound, at human MCH-2R, the EC50 is greater than 10 µM and the “MCH-2R Agonist Activation %” value turned out to be 91%. Besides, at rat MCH-1R [1], the IC50 turned out to be 0.056 µM and the Kb was found to be 0.024 µM. Also, on rat MCH-1R [2], the EC50 is greater than 10 µM and the “MCH-1R Agonist Activation %” value worked out at 3%.
